The values below come from patent publication US11401508B2, “Methods for isolating human cardiac ventricular progenitor cells” (Procella Therapeutics AB, priority 2016, dated 2022).

Assay [1] relates to mature human muscle organ. Put plainly: Force generation of muscle strips from HVP-derived human muscle organ on electric stimulation. To be noted: 5-month graft, p<0.05 compared to control. An excerpt:
Animals were sacrificed and the engrafted kidneys were removed for further analysis. The 5-month human graft was a hemisphere structure with the radius of 0.4 cm (diameter of 0.8 cm). […] In addition, muscle trips taken from our mature human muscle organ generated forces (0.36±0.04 mN) in response to electric stimulation and increased their force generation after treatment with a β-adrenergic agonist isoprenaline (0.51±0.02 mN, p<0.05 compared to control). Taken together, these studies indicate that the HVPs are capable of generating a fully functional, mature human ventricular muscle organ in vivo via a cell autonomous pathway, i.e., without the addition of other cells, genes, matrix proteins, or biomaterials.

Assay [2] has as its system hPSCs. Put plainly: Cardiac differentiation of hPSCs, lineage markers by flow cytometry and immunostaining. Format: cell-based, human. As to the method:
Cells were then cultured in mTeSR1, changed daily.
Data were collected on a FACSCaliber flow cytometer (Beckton Dickinson) and analyzed using FlowJo.
(In flow cytometry, cells or beads pass a laser one at a time.)

Assay [3] deals with GSK-3 α (Homo sapiens, UniProt P49840). To be noted: cited from earlier work.
Chain of GSK-3 α (P49840 whole entry, species assumed): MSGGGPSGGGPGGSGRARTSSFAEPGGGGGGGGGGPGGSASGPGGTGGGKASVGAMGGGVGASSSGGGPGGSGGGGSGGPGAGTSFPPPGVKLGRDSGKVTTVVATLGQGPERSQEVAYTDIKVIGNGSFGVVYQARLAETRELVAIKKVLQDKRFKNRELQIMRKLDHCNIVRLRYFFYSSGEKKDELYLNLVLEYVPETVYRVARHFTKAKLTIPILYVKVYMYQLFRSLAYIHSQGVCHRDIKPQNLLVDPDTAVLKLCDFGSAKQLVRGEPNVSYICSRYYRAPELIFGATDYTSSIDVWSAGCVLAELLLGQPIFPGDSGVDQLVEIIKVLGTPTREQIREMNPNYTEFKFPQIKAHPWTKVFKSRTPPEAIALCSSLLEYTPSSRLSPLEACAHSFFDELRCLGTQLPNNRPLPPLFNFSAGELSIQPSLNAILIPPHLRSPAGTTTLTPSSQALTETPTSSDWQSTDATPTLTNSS
In assay [4] the target is GSK-3, β (Homo sapiens, UniProt P49841). To be noted: read-out: IC50 GSK-3 β; cited from earlier work.
Chain of GSK-3, β (P49841 whole entry, species assumed): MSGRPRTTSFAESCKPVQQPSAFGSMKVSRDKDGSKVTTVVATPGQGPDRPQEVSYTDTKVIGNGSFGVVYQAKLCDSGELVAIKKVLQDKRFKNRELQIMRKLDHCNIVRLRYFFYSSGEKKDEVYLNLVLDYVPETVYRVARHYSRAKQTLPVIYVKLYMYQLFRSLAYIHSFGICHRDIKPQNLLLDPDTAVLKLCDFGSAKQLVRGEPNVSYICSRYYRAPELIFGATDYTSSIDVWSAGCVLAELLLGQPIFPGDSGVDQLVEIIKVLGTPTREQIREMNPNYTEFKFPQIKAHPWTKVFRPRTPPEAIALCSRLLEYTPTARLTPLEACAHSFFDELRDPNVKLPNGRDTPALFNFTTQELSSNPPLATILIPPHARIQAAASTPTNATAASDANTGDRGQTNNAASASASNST
The target of assay [5] is T1, Porcn (Homo sapiens, UniProt Q9H237).
T1 sequence (Q9H237 1-461): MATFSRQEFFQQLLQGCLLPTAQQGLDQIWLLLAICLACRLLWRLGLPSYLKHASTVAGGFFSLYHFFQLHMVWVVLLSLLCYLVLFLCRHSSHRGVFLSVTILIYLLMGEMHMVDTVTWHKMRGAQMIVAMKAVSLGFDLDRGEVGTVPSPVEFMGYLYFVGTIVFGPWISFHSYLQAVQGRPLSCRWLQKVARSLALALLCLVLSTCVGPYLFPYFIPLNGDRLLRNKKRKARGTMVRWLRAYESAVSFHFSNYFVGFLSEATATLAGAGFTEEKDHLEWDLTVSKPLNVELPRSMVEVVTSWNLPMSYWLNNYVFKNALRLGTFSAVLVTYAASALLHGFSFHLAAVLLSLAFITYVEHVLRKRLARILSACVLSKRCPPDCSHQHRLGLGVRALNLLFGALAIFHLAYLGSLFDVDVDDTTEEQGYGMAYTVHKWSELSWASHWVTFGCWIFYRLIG
To be noted: read-out: IC50 (Porcn inhibitor); cited from earlier work.

For the compound `CC(C)NCC(O)c1ccc(O)c(O)c1` (centres unmarked) [isoprenaline], the “force generated by muscle strips after treatment with β-adrenergic agonist” value in assay [1] amounted to 0.51±0.02 mN.

With CHIR98014, the “hPSCs expressing the mesoderm marker Brachyury” value in assay [2] (after 24 hour treatment) is on record as “more than 99%”. The “differentiated cells expressing Mesp1 (cardiac mesoderm)” value in assay [2] (three days after treatment) is listed as “more than 95%”. In addition, the IC50 was 0.65 nM in assay [3] and 0.58 nM in assay [4].

Regarding `Cc1ccc2nc(NC(=O)CSc3nc4c(c(=O)n3-c3ccccc3)SCC4)sc2c1` [IWP2], the IC50 in assay [5] was 27 nM.

On to `Cc1cc(-c2ccc(CC(=O)Nc3ccc(-c4cccnc4)cc3)cc2)ccn1` [Wnt-059], for which the “ventricular progenitor differentiation from mesoderm cells” value in assay [2] (48-hour treatment) is reported as “enhanced ventricular progenitor differentiation”. Moreover, the IC50 in assay [5] is 0.074 nM.

The term IC50 denotes the concentration at which inhibition is half-maximal.
